Tests used:
[1] = Cytotoxicity against human HEL cells; assay type: cell-based
[2] = Cytotoxicity against cat CRFK cells; assay type: cell-based, Felis catus
CCRF-CEM = assay: Cytotoxicity against human CEM cells; assay type: cell-based
L1210 = assay: Cytotoxicity against mouse L1210 cells; assay type: cell-based
[3] = test system: Human immunodeficiency virus 2; assay: Antiviral activity against HIV-2 ROD infected in human CEM cells assessed as HIV-induced host giant cell formation after 4 days by microscopic analysis; assay type: functional, organism-based; settings: Human immunodeficiency virus 2, ISOLATE ROD, CCRF-CEM, 96 h
[4] = test system: Human immunodeficiency virus 1; assay: Antiviral activity against HIV-1 3B infected in human CEM cells assessed as HIV-induced host giant cell formation after 4 days by microscopic analysis; assay type: functional, organism-based; settings: Human immunodeficiency virus 1, 3B, CCRF-CEM, 96 h
Felid alphaherpesvirus 1 = assay: Antiviral activity against Feline herpesvirus in cat CrFK cells assessed as plaque formation; assay type: functional, organism-based; settings: Felid alphaherpesvirus 1, CRFK
Feline coronavirus = assay: Antiviral activity against Feline coronavirus in cat CrFK cells assessed as plaque formation; assay type: functional, organism-based; settings: Alphacoronavirus 1, CRFK
Cytomegalovirus = assay: Antiviral activity against Cytomegalovirus Davis infected in HEL cells assessed as inhibition of virus-induced cytopathicity; assay type: functional, organism-based; settings: Human betaherpesvirus 5, Davis
Human betaherpesvirus 5 = assay: Antiviral activity against Cytomegalovirus AD-169 infected in HEL cells assessed as inhibition of virus-induced cytopathicity; assay type: functional, organism-based; settings: Human betaherpesvirus 5, AD169, HEL
Human alphaherpesvirus 3 [5] = assay: Antiviral activity against Varicellla-zoster virus 07-1 infected in HEL cells assessed as inhibition of virus-induced cytopathicity; assay type: functional, organism-based; settings: Human alphaherpesvirus 3, 07-1, HEL
Human alphaherpesvirus 3 [6] = assay: Antiviral activity against Varicellla-zoster virus Oka infected in HEL cells assessed as inhibition of virus-induced cytopathicity; assay type: functional, cell-based; settings: Human alphaherpesvirus 3, strain Oka vaccine
Human alphaherpesvirus 1 [7] = assay: Antiviral activity against thymidine kinase-deficient ACV-resistant HSV-1 KOS infected in HEL cells assessed as inhibition of virus-induced cytopathicity; assay type: functional, organism-based; settings: Human alphaherpesvirus 1, KOS
[8] = test system: Vesicular stomatitis virus; assay: Antiviral activity against Vesicular somatitis virus infected in HEL cells assessed as inhibition of virus-induced cytopathicity; assay type: functional, organism-based
Vaccinia virus = assay: Antiviral activity against Vaccinia virus Lederle infected in HEL cells assessed as inhibition of virus-induced cytopathicity; assay type: functional, organism-based; settings: Orthopoxvirus vaccinia
Human alphaherpesvirus 2 = assay: Antiviral activity against HSV-2 G infected in HEL cells assessed as inhibition of virus-induced cytopathicity; assay type: functional, organism-based; settings: Human alphaherpesvirus 2, strain G
Human alphaherpesvirus 1 [9] = assay: Antiviral activity against HSV-1 KOS infected in HEL cells assessed as inhibition of virus-induced cytopathicity; assay type: functional, organism-based; settings: Human alphaherpesvirus 1, KOS

Compound | MCC [1] | CC50 [2] | IC50 (CCRF-CEM) | IC50 (L1210) | EC50 [3] | EC50 [4] | EC50 (Felid alphaherpesvirus 1) | EC50 (Feline coronavirus) | EC50 (Cytomegalovirus) | EC50 (Human betaherpesvirus 5) | EC50 (Human alphaherpesvirus 3 [5]) | EC50 (Human alphaherpesvirus 3 [6]) | EC50 (Human alphaherpesvirus 1 [7]) | EC50 [8] | EC50 (Vaccinia virus) | EC50 (Human alphaherpesvirus 2) | EC50 (Human alphaherpesvirus 1 [9])
C[C@H](NP(=O)(Oc1cccc2ccccc12)O[C@H]1O[C@H](CO)[C@@H](O)C1(F)F)C(=O)OC1CCCCC1 (some centres not stated) | ≥ 100 µM | > 100 µM | > 30 µM | > 30 µM | > 50 µM | > 50 µM | > 20 µM | > 20 µM | > 20 µM | > 20 µM | > 20 µM | > 20 µM | > 20 µM | > 20 µM | > 20 µM | > 20 µM | > 20 µM
C[C@H](NP(=O)(Oc1ccccc1)O[C@@H]1O[C@H](CO)[C@@H](O)C1(F)F)C(=O)OC1CCCCC1 (some centres not stated) | ≥ 100 µM | > 100 µM | > 30 µM | > 30 µM | > 250 µM | > 250 µM | > 20 µM | > 20 µM | > 20 µM | > 20 µM | > 20 µM | > 20 µM | > 20 µM | > 20 µM | > 20 µM | > 20 µM | > 20 µM
C[C@H](NP(=O)(Oc1cccc2ccccc12)O[C@@H]1O[C@H](CO)[C@@H](O)C1(F)F)C(=O)OC1CCCCC1 (mixture of isomers) | ≥ 100 µM | > 100 µM | > 30 µM | > 30 µM | > 50 µM | > 50 µM | > 20 µM | > 20 µM | > 20 µM | > 20 µM | > 20 µM | > 20 µM | > 20 µM | > 20 µM | > 20 µM | > 20 µM | > 20 µM
C[C@H](NP(=O)(Oc1ccccc1)O[C@H]1O[C@H](CO)[C@@H](O)C1(F)F)C(=O)OCC(C)(C)C (mixture of isomers) | ≥ 100 µM | > 100 µM | > 30 µM | > 30 µM | > 250 µM | > 250 µM | > 20 µM | > 20 µM | > 20 µM | > 20 µM | > 20 µM | > 20 µM | > 20 µM | > 20 µM | > 20 µM | > 20 µM | > 20 µM
COC(=O)[C@H](C)NP(=O)(Oc1ccccc1)O[C@H]1O[C@H](CO)[C@@H](O)C1(F)F (mixture of isomers) | ≥ 100 µM | > 100 µM | > 30 µM | > 30 µM | > 250 µM | > 250 µM | > 20 µM | > 20 µM | > 20 µM | > 20 µM | > 20 µM | > 20 µM | > 20 µM | > 20 µM | > 20 µM | > 20 µM | > 20 µM
COC(=O)[C@@H](NP(=O)(Oc1ccccc1)O[C@H]1O[C@H](CO)[C@@H](O)C1(F)F)C(C)C (mixture of isomers) | ≥ 100 µM | > 100 µM | > 30 µM | > 30 µM | > 250 µM | > 250 µM | > 20 µM | > 20 µM | > 20 µM | > 20 µM | > 20 µM | > 20 µM | > 20 µM | > 20 µM | > 20 µM | > 20 µM | > 20 µM
COC(=O)[C@@H](NP(=O)(Oc1cccc2ccccc12)O[C@H]1O[C@H](CO)[C@@H](O)C1(F)F)C(C)C (mixture of isomers) | ≥ 100 µM | > 100 µM | > 30 µM | > 30 µM | > 50 µM | > 50 µM | > 20 µM | > 20 µM | > 20 µM | > 20 µM | > 20 µM | > 20 µM | > 20 µM | > 20 µM | > 20 µM | > 20 µM | > 20 µM
C[C@H](NP(=O)(Oc1cccc2ccccc12)O[C@H]1O[C@H](CO)[C@@H](O)C1(F)F)C(=O)OCC(C)(C)C (mixture of isomers) | ≥ 100 µM | > 100 µM | > 30 µM | > 30 µM | > 50 µM | > 50 µM | > 20 µM | > 20 µM | > 20 µM | > 20 µM | > 20 µM | > 20 µM | > 20 µM | > 20 µM | > 20 µM | > 20 µM | > 20 µM
COC(=O)[C@H](C)NP(=O)(Oc1cccc2ccccc12)O[C@H]1O[C@H](CO)[C@@H](O)C1(F)F (mixture of isomers) | ≥ 100 µM | > 100 µM | > 30 µM | > 30 µM | > 50 µM | > 50 µM | > 20 µM | > 20 µM | > 20 µM | > 20 µM | > 20 µM | > 20 µM | > 20 µM | > 20 µM | > 20 µM | > 20 µM | > 20 µM
C[C@H](NP(=O)(Oc1cccc2ccccc12)O[C@@H]1O[C@H](CO)[C@@H](O)C1(F)F)C(=O)OCC(C)(C)C (mixture of isomers) | ≥ 100 µM | > 100 µM | > 30 µM | > 30 µM | > 50 µM | > 50 µM | > 20 µM | > 20 µM | > 20 µM | > 20 µM | > 20 µM | > 20 µM | > 20 µM | > 20 µM | > 20 µM | > 20 µM | > 20 µM
COC(=O)[C@H](C)NP(=O)(Oc1cccc2ccccc12)O[C@@H]1O[C@H](CO)[C@@H](O)C1(F)F (mixture of isomers) | ≥ 100 µM | > 100 µM | > 30 µM | > 30 µM | > 50 µM | > 50 µM | > 20 µM | > 20 µM | > 20 µM | > 20 µM | > 20 µM | > 20 µM | > 20 µM | > 20 µM | > 20 µM | > 20 µM | > 20 µM
